Data: PMC8909834, “An Orally Bioavailable and Highly Efficacious Inhibitor of CDK9/FLT3 for the Treatment of Acute Myeloid Leukemia” (Cancers, 2022)

Legend:
Experiment in all cases: Kinase Hotspot radiolabel assay
Assay type in all cases: biochemical
Details in all cases: read-out: % Residual Activity
[1] = molecular target: T1, STK38L/NDR2 (Homo sapiens, UniProt Q9Y2H1)
T1 construct: purchased Reaction Biology Corporation (Kinase HotSpot)
In short: (§1)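 Radiometric Hotspot screen: single test concentration of 1 µM, 369 kinases. Ki follow-up was applied only where inhibition exceeded 90%.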

[2] = molecular target: T2, CDK5/p35 (Homo sapiens, UniProt Q00535)
T2 construct: purchased Reaction Biology Corporation (Kinase HotSpot)
In short: as §1

[3] = molecular target: T3, FGFR3 (Homo sapiens, UniProt P22607)
T3 construct: purchased Reaction Biology Corporation (Kinase HotSpot)
In short: as §1

[4] = molecular target: T4, CDK9/cyclin T2 (Homo sapiens, UniProt P50750)
T4 construct: purchased Reaction Biology Corporation (Kinase HotSpot)
In short: as §1

[5] = molecular target: T5, PKCb1 (Homo sapiens, UniProt P05771)
T5 construct: purchased Reaction Biology Corporation (Kinase HotSpot)
In short: as §1

[6] = molecular target: T6, MNK2 (Homo sapiens, UniProt Q9HBH9)
T6 construct: purchased Reaction Biology Corporation (Kinase HotSpot)
In short: as §1

[7] = molecular target: T7, GSK3a (Homo sapiens, UniProt P49840)
T7 construct: purchased Reaction Biology Corporation (Kinase HotSpot)
In short: as §1

[8] = molecular target: T8, CDK6/cyclin D1 (Homo sapiens, UniProt Q00534)
T8 construct: purchased Reaction Biology Corporation (Kinase HotSpot)
In short: as §1

[9] = molecular target: T9, DYRK1B (Homo sapiens, UniProt Q9Y463)
T9 construct: purchased Reaction Biology Corporation (Kinase HotSpot)
In short: as §1

[10] = molecular target: T10, DYRK1/DYRK1A (Homo sapiens, UniProt Q13627)
T10 construct: purchased Reaction Biology Corporation (Kinase HotSpot)
In short: as §1

[11] = molecular target: T11, PLK2 (Homo sapiens, UniProt Q9NYY3)
T11 construct: purchased Reaction Biology Corporation (Kinase HotSpot)
In short: as §1

[12] = molecular target: T12, IRAK1 (Homo sapiens, UniProt P51617)
T12 construct: purchased Reaction Biology Corporation (Kinase HotSpot)
In short: as §1

[13] = molecular target: T13, ALK6/BMPR1B (Homo sapiens, UniProt O00238)
T13 construct: purchased Reaction Biology Corporation (Kinase HotSpot)
In short: as §1

[14] = molecular target: T14, PKCtheta (Homo sapiens, UniProt Q04759)
T14 construct: purchased Reaction Biology Corporation (Kinase HotSpot)
In short: as §1

[15] = molecular target: T15, CHK1 (Homo sapiens, UniProt O14757)
T15 construct: purchased Reaction Biology Corporation (Kinase HotSpot)
In short: as §1

[16] = molecular target: T16, TYK2 (Homo sapiens, UniProt P29597)
T16 construct: purchased Reaction Biology Corporation (Kinase HotSpot)
In short: as §1

[17] = molecular target: T17, GRK4 (Homo sapiens, UniProt P32298)
T17 construct: purchased Reaction Biology Corporation (Kinase HotSpot)
In short: as §1

[18] = molecular target: T18, GRK7 (Homo sapiens, UniProt Q8WTQ7)
T18 construct: purchased Reaction Biology Corporation (Kinase HotSpot)
In short: as §1

[19] = molecular target: T19, CSK (Homo sapiens, UniProt P41240)
T19 construct: purchased Reaction Biology Corporation (Kinase HotSpot)
In short: as §1

[20] = molecular target: T20, P38b/MAPK11 (Homo sapiens, UniProt Q15759)
T20 construct: purchased Reaction Biology Corporation (Kinase HotSpot)
In short: as §1

[21] = molecular target: T21, EPHA1 (Homo sapiens, UniProt P21709)
T21 construct: purchased Reaction Biology Corporation (Kinase HotSpot)
In short: as §1

[22] = molecular target: T22, TYRO3/SKY (Homo sapiens, UniProt Q06418)
T22 construct: purchased Reaction Biology Corporation (Kinase HotSpot)
In short: as §1

[23] = molecular target: T23, NLK (Homo sapiens, UniProt Q9UBE8)
T23 construct: purchased Reaction Biology Corporation (Kinase HotSpot)
In short: as §1

[24] = molecular target: T24, CDK6/cyclin D3 (Homo sapiens, UniProt Q00534)
T24 construct: purchased Reaction Biology Corporation (Kinase HotSpot)
In short: as §1

[25] = molecular target: T25, FGR (Homo sapiens, UniProt P09769)
T25 construct: purchased Reaction Biology Corporation (Kinase HotSpot)
In short: as §1

[26] = molecular target: T26, DYRK3 (Homo sapiens, UniProt O43781)
T26 construct: purchased Reaction Biology Corporation (Kinase HotSpot)
In short: as §1

[27] = molecular target: T27, MST3/STK24 (Homo sapiens, UniProt Q9Y6E0)
T27 construct: purchased Reaction Biology Corporation (Kinase HotSpot)
In short: as §1

[28] = molecular target: T28, CDK14/cyclin Y (PFTK1) (Homo sapiens, UniProt O94921)
T28 construct: purchased Reaction Biology Corporation (Kinase HotSpot)
In short: as §1

[29] = molecular target: T29, CDK1/cyclin E (Homo sapiens, UniProt P06493)
T29 construct: purchased Reaction Biology Corporation (Kinase HotSpot)
In short: as §1

[30] = molecular target: T30, FLT4/VEGFR3 (Homo sapiens, UniProt P35916)
T30 construct: purchased Reaction Biology Corporation (Kinase HotSpot)
In short: as §1

T1 sequence (Q9Y2H1 whole entry): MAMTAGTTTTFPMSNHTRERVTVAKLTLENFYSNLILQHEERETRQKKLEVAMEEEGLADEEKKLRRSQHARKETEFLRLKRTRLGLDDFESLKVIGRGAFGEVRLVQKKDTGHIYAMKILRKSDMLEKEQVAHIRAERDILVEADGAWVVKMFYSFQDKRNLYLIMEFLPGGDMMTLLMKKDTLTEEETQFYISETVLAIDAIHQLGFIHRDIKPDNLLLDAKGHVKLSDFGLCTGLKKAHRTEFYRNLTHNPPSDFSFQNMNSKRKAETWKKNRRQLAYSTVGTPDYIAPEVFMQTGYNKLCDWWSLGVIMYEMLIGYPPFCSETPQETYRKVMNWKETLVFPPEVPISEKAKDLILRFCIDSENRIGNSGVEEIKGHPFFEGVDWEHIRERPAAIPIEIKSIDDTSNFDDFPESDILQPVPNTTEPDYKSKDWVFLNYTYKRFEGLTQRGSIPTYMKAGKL
T4 sequence (P50750 whole entry): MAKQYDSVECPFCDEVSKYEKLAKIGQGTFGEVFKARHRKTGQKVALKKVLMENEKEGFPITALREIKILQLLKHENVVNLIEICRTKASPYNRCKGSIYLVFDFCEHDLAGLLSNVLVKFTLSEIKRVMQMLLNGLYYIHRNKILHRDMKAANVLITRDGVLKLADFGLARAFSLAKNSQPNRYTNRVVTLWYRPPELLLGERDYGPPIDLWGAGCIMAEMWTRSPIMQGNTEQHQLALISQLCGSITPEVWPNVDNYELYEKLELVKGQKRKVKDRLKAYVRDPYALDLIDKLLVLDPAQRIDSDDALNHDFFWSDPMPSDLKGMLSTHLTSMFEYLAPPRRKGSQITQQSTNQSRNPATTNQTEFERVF
T4 sequence (O60583 whole entry partner): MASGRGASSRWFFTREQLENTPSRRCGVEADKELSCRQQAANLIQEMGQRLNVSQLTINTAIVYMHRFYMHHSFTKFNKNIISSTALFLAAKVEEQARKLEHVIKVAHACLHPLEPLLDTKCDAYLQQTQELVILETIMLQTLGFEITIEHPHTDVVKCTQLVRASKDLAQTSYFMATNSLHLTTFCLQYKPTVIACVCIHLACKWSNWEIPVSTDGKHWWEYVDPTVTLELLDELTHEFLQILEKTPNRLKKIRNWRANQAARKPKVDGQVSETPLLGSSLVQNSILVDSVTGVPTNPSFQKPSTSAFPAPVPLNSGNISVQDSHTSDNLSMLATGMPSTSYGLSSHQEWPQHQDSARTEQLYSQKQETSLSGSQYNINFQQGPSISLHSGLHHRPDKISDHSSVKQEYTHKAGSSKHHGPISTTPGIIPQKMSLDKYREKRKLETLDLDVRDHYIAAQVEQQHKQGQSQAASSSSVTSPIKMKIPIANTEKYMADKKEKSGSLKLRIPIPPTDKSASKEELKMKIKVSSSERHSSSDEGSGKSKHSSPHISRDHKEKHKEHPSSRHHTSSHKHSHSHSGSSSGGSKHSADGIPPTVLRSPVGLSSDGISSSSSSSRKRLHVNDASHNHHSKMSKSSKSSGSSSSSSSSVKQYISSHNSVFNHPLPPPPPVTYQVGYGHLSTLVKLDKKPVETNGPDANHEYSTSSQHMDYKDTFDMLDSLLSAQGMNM
T3 sequence (P22607 23-806): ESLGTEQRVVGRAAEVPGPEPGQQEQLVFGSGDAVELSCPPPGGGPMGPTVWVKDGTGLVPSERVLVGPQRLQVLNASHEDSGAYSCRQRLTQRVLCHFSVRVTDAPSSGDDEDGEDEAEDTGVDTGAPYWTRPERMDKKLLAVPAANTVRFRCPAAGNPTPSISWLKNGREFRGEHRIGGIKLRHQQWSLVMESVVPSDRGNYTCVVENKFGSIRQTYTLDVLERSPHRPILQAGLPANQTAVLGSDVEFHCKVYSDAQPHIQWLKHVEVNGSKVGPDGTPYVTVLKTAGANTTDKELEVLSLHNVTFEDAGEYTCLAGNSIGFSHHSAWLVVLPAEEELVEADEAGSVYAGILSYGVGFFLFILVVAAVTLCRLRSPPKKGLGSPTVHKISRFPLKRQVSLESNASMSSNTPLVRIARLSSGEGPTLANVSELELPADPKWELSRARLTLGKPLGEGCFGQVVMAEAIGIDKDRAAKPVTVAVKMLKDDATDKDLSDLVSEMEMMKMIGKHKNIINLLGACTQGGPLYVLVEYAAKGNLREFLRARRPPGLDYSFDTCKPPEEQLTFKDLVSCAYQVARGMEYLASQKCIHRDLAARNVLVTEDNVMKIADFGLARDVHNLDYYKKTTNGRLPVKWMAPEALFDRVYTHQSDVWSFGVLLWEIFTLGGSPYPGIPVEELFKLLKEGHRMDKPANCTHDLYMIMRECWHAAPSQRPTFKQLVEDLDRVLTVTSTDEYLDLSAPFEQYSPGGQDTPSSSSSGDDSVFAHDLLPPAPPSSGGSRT
T13 sequence (O00238 14-502): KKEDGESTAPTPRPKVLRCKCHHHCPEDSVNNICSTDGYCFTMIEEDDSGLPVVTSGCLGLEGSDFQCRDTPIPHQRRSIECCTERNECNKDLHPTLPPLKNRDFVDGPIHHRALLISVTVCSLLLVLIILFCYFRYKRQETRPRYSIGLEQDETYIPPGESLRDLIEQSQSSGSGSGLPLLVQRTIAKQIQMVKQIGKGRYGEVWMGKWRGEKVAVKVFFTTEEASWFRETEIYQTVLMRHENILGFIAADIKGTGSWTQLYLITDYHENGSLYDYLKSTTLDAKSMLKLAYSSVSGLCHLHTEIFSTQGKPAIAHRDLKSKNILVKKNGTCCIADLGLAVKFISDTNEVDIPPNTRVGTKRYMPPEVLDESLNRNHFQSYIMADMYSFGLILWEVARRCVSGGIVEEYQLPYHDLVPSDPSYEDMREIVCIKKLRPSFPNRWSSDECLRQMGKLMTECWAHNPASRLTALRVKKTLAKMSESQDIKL
T15 sequence (O14757 whole entry): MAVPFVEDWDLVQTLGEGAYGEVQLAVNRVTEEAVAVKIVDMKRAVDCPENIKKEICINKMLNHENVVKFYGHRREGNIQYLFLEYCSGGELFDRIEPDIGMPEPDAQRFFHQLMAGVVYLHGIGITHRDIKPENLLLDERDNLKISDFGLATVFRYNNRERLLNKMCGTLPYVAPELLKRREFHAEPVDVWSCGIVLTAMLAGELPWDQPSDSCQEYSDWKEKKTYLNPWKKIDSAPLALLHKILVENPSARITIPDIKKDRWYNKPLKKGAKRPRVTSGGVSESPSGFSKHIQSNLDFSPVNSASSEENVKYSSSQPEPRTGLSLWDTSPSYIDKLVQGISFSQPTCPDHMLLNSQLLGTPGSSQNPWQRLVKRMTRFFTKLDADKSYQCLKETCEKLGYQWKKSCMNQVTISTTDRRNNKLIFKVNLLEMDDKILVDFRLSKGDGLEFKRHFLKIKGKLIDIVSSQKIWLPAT
T8 sequence (Q00534 whole entry): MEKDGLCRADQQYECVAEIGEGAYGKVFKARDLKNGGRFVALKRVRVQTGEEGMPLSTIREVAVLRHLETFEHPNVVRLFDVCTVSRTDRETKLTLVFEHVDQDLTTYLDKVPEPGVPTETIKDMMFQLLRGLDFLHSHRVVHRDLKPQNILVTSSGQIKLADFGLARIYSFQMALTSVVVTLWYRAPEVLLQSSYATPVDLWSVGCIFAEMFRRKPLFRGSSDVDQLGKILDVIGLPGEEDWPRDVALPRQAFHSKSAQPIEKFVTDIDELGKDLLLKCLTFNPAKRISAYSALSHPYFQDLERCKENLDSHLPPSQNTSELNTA
T8 sequence (P24385 whole entry partner): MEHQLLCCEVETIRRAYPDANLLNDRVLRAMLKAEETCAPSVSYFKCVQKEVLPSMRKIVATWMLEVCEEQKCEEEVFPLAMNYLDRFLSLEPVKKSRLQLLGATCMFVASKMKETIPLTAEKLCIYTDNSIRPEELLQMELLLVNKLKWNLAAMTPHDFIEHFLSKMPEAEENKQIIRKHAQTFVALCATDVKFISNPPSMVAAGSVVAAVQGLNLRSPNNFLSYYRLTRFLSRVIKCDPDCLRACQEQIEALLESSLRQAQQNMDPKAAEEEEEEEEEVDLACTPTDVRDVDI
T24 sequence (Q00534 whole entry): as the sequence (Q00534 whole entry) above
T24 sequence (P30281 whole entry partner): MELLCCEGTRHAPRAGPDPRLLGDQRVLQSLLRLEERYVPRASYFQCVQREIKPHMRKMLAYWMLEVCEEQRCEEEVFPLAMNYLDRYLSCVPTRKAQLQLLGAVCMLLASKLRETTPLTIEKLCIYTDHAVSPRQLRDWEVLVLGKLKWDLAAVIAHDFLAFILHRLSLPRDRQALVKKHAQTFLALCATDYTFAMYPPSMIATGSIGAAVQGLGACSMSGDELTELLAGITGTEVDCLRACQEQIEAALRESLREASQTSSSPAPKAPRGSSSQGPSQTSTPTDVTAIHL
T6 sequence (Q9HBH9 whole entry): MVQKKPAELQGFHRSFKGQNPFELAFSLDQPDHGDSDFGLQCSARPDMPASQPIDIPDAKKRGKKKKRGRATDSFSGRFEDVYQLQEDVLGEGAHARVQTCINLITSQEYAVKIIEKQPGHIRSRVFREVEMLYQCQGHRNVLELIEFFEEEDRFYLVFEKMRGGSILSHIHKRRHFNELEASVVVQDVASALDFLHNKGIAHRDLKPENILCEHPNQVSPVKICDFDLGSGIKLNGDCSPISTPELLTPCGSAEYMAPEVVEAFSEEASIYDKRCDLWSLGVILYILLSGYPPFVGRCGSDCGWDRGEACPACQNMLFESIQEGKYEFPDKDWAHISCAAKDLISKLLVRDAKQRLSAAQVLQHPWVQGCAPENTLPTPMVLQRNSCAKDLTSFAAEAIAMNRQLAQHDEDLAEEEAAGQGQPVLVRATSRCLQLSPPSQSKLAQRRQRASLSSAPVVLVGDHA

Structure (SMILES): Cc1cnc(N[C@H]2CC[C@H](N)CC2)nc1-c1cnc2ccc(-c3ccccc3)cn12 [CDDD11-8]
- remaining activity at 1 µM [1]: 96.7%
- remaining activity at 1 µM [2]: 84.5%
- remaining activity at 1 µM [3]: 92.8%
- remaining activity at 1 µM [4]: 2.35%
- remaining activity at 1 µM [5]: 87.4%
- remaining activity at 1 µM [6]: 83.5%
- remaining activity at 1 µM [7]: 70.1%
- remaining activity at 1 µM [8]: 80.7%
- remaining activity at 1 µM [9]: 22.2%
- remaining activity at 1 µM [10]: 63.9%
- remaining activity at 1 µM [11]: 97.5%
- remaining activity at 1 µM [12]: 91.9%
- remaining activity at 1 µM [13]: 105%
- remaining activity at 1 µM [14]: 46.2%
- remaining activity at 1 µM [15]: 95.2%
- remaining activity at 1 µM [16]: 93.2%
- remaining activity at 1 µM [17]: 98.2%
- remaining activity at 1 µM [18]: 70.7%
- remaining activity at 1 µM [19]: 91.2%
- remaining activity at 1 µM [20]: 98.4%
- remaining activity at 1 µM [21]: 93.1%
- remaining activity at 1 µM [22]: 82.2%
- remaining activity at 1 µM [23]: 83.4%
- remaining activity at 1 µM [24]: 96.6%
- remaining activity at 1 µM [25]: 73.4%
- remaining activity at 1 µM [26]: 23.2%
- remaining activity at 1 µM [27]: 103%
- remaining activity at 1 µM [28]: 68.8%
- remaining activity at 1 µM [29]: 87.5%
- remaining activity at 1 µM [30]: 23.3%
